According to publication PMC9611758, “Bioactive Platinum(IV) Complexes Incorporating Halogenated Phenylacetates” (Molecules, 2022):
Read-outs that look alike come from different tables or passages of the source.

What was measured:
[1] = design: method as in earlier work; conditions: heterocyclic ligand; cited from earlier work
MCF-7 breast = system: MCF-7 breast; design: method as in PMID 36142383; conditions: MTT assay, 72 h; cited from earlier work
U87 glioblastoma = system: U87 glioblastoma; design: method as in PMID 36142383; conditions: MTT assay, 72 h; cited from earlier work
panel of cell lines [2] = system: panel of cell lines; design: method as in PMID 36142383; conditions: average over the cell lines tested, MTT assay, 72 h; cited from earlier work
A2780 ovarian = system: A2780 ovarian; design: method as in PMID 36142383; conditions: MTT assay, 72 h; cited from earlier work
BE2-C neuroblastoma = system: BE2-C neuroblastoma; design: method as in PMID 36142383; conditions: MTT assay, 72 h; cited from earlier work
panel of cell lines [3] = experiment: MTT growth inhibition assay, whole panel of cell lines; format: cell-based, human; conditions: platinum(IV) precursor less cytotoxic than platinum(II) precursor, all cell lines
[4] = system: non-tumour derived MCF10A breast line; design: method as in PMID 36142383; conditions: MTT assay, 72 h; cited from earlier work
A431 skin = system: A431 skin; design: method as in PMID 36142383; conditions: MTT assay, 72 h; cited from earlier work
MIA pancreas = system: MIA pancreas; design: method as in PMID 36142383; conditions: MTT assay, 72 h; cited from earlier work
[5] = system: ADDP-resistant ovarian variant; design: method as in PMID 36142383; conditions: MTT assay, 72 h; cited from earlier work
SJ-G2 glioblastoma = system: SJ-G2 glioblastoma; design: method as in PMID 36142383; conditions: MTT assay, 72 h; cited from earlier work
Du145 prostate [6] = system: Du145 prostate; design: method as in PMID 36142383; conditions: MTT assay, 72 h; cited from earlier work
HT29 colon cells [7] = system: HT29 colon cells; design: method as in PMID 36142383; conditions: cited from earlier work
HT29 colon [8] = system: HT29 colon; design: method as in PMID 36142383; conditions: MTT assay, 72 h; cited from earlier work
H460 lung = system: H460 lung; design: method as in PMID 36142383; conditions: MTT assay, 72 h; cited from earlier work
HT29 colon cells [9] = experiment: ROS detection assay (DCFH-DA); format: cell-based, human; conditions: HT29 colon cells, treated at GI50 concentration (TBHP positive control 20 μM)
[10] = system: PC3 (prostate carcinoma) tumour xenografts; design: method as in PMID 18997969; conditions: PC3 xenograft mice; cited from earlier work
[11] = system: murine leukaemia cell line (L1210); conditions: cited from earlier work
HT29 colon [12] = experiment: MTT growth inhibition assay, HT29; format: cell-based, human
Du145 prostate [13] = experiment: MTT growth inhibition assay, Du145; format: cell-based, human; conditions: Du145 prostate, ratio of GI50 values
[14] = system: ADDP-resistant ovarian variant; experiment: MTT growth inhibition assay, ADDP; format: cell-based, human
[15] = system: murine leukaemia cell line (L1210); experiment: Cytotoxicity in L1210 (literature); format: cell-based; conditions: SS more cytotoxic than RR
Text: Chirality is crucial to the biological activity of the studied complexes.

[16] = system: peritoneal carcinomatosis; design: method as in PMID 20535526; conditions: cited from earlier work

Compound | GI50 (MCF-7 breast) | GI50 (U87 glioblastoma) | GI50 (panel of cell lines [2]) | GI50 (A2780 ovarian) | GI50 (BE2-C neuroblastoma) | GI50 [4] | GI50 (A431 skin) | GI50 (MIA pancreas) | GI50 [5] | GI50 (SJ-G2 glioblastoma) | GI50 (Du145 prostate [6]) | ROS production 24 h (HT29 colon cells [7]) | ROS production 48 h (HT29 colon cells [7]) | ROS production 72 h (HT29 colon cells [7]) | GI50 (HT29 colon [8]) | GI50 (H460 lung) | GI50 [11] | also measured
Cc1c(C)c2cccnc2c2ncccc12 [5,6-Me2phen, 5,6-dimethyl-1,10-phenanthroline] | – | – | – | – | – | – | – | – | – | – | – | – | – | – | – | – | – | pKa [1]: 5.6
Cc1c(C)c2c3c4c1=CC=C[N]4[Pt+2]([OH])([OH])[N]3C=CC=2.N[C@H]1CCCC[C@@H]1N [56MESS(IV)(OH)2] | 480 ± 140 nM | 190 ± 23 nM | 151 ± 50 nM | 59 ± 7 nM | 240 ± 22 nM | 61 ± 7 nM | 120 ± 22 nM | 43 ± 2.5 nM | 170 ± 120 nM | 210 ± 45 nM | 15 ± 2.6 nM | 259 ± 3 RFU | 356 ± 11 RFU | 438 ± 7 RFU | 36 ± 7 nM | 190 ± 150 nM | – | fold difference in average GI50 versus corresponding platinum(II) precursor (panel of cell lines [3]): 4 fold
N.N.O=C([O-])C1(C(=O)[O-])CCC1.[Pt+2] [Carboplatin, cis-diammine(1,1-cyclobutanedicarboxylato) platinum(II)] | > 50000 nM | > 50000 nM | – | 9200 ± 2900 nM | 19000 nM | > 50000 nM | 24000 nM | > 50000 nM | > 50000 nM | 5700 ± 200 nM | 15000 nM | – | – | – | > 50000 nM | 14000 nM | – | –
N.N.[Cl][Pt][Cl] [Cisplatin, Cis-diamminedichloroplatinum(II)] | 6500 ± 800 nM | 3800 ± 1100 nM | 5840 ± 610 nM | 1000 ± 100 nM | 1900 ± 200 nM | 5200 ± 520 nM | 2400 ± 300 nM | 7500 ± 1300 nM | 28000 nM | 400 ± 100 nM | 1200 ± 100 nM | – | – | – | 11300 nM | 900 ± 200 nM | – | ROS production 24 h (HT29 colon cells [9]; 24 h): 221 ± 10 RFU; ROS production 48 h (HT29 colon cells [9]; 48 h): 280 ± 12 RFU; ROS production 72 h (HT29 colon cells [9]; 72 h): 318 ± 9 RFU; mean tumour weight in relation to the control group [10]: comparable decrease in mean tumour weight
Cc1c(C)c2c3c4c1=CC=C[N]4[Pt+2][N]3C=CC=2.N[C@@H]1CCCC[C@H]1N [Complex 56MERR] | – | – | – | – | – | – | – | – | – | – | – | – | – | – | – | – | 460 nM | –
Cc1c(C)c2cccnc2c2ncccc12.N[C@H]1CCCC[C@@H]1N.[Pt] [Complex 56MESS, [Pt^II(5,6-Me2phen)(SS-DACH)]^2+] | 93 ± 44 nM | 35 ± 6.4 nM | 36 ± 10 nM | 76 ± 57 nM | 59 ± 4 nM | 16 ± 1 nM | 29 ± 1 nM | 13 ± 2 nM | 13 ± 2 nM | 66 ± 22 nM | 4.6 ± 0.4 nM | 240 ± 5 RFU | 218 ± 3 RFU | 255 ± 4 RFU | 10 ± 1.6 nM | 21 ± 2 nM | 9 nM | fold more reactive compared to cisplatin (HT29 colon [12]; HT29 colon, ratio of GI50 values): 1100 fold; fold increase in potency over carboplatin (Du145 prostate [13]): ~3300 fold; fold increase in potency over oxaliplatin (Du145 prostate [13]): 630 fold; fold more potent than cisplatin ([14]; ADDP-resistant ovarian variant, ratio of GI50 values): 2150 fold; fold difference in cytotoxicity between RR-DACH and SS-DACH enantiomer [15]: 51 fold; nephrotoxicity ([16]; at pharmacological doses): induced nephrotoxicity; tumour suppression response ([16]; intravenous and intraperitoneal treatment): did not elicit a tumour suppression response
C1=C[N]2[Pt+2][N]3C=CC=c4ccc(c2c43)=C1.N[C@@H]1CCCC[C@H]1N [PHENRR] | – | – | – | – | – | – | – | – | – | – | – | – | – | – | – | – | 1500 nM | –
N[C@H]1CCCC[C@@H]1N.[OH][Pt+2]1([OH])[N]2C=CC=c3ccc4c(c32)[N]1C=CC=4 [PHENSS(IV)(OH)2] | 16000 nM | 4900 ± 610 nM | 3320 ± 880 nM | 800 ± 84 nM | 3000 ± 530 nM | 1700 ± 200 nM | 4300 ± 530 nM | 3400 ± 2200 nM | 1300 ± 350 nM | 1700 ± 350 nM | 310 ± 92 nM | 144 ± 5 RFU | 273 ± 4 RFU | 303 ± 1 RFU | 710 ± 300 nM | 1700 ± 200 nM | – | fold difference in average GI50 versus corresponding platinum(II) precursor (panel of cell lines [3]): ~8 fold
C1=C[N]2[Pt+2][N]3C=CC=c4ccc(c2c43)=C1.N[C@H]1CCCC[C@@H]1N [PHENSS, [Pt^II(phen)(SS-DACH)]^2+] | 1500 ± 500 nM | 980 ± 270 nM | 434 ± 110 nM | 230 ± 30 nM | 380 ± 46 nM | 300 ± 58 nM | 480 ± 170 nM | 200 ± 57 nM | 190 ± 47 nM | 330 ± 66 nM | 100 ± 38 nM | 174 ± 2 RFU | 172 ± 9 RFU | 176 ± 7 RFU | 160 ± 45 nM | 360 ± 35 nM | 130 nM | fold more reactive compared to cisplatin (HT29 colon [12]): 70 fold; fold more potent than cisplatin [14]: ~150 fold; fold difference in cytotoxicity between RR-DACH and SS-DACH enantiomer [15]: ~12 fold; mean tumour weight in relation to the control group [10]: comparable decrease in mean tumour weight; toxicity / mortality [10]: no obvious signs of toxicity
c1cnc2c(c1)ccc1cccnc12 [phen, 1,10-phenanthroline] | – | – | – | – | – | – | – | – | – | – | – | – | – | – | – | – | – | pKa [1]: 4.9
